Reference: patent US20090264355A1, “METHODS TO TREAT ALZHEIMER'S DISEASE OR OTHER DISORDERS MEDIATED BY AMYLOID-BETA ACCUMULATION IN A SUBJECT” (WASHINGTON UNIVERSITY IN ST. LOUIS, priority 2005, published 2009)

Columns and labels:
Pgp [1] = molecular target: T1, Pgp (Mus musculus, UniProt P21447); experiment: ISF Aβ in vivo microdialysis after acute pharmacologic inhibition of Pgp; parameters: species or system APPsw mice; settings: 80 mg/kg intravenous
T1 construct: from tissue; host or cells: brain (blood-brain barrier) of living 3 month old APPsw+/- (Tg2576) mice
T1 sequence (P21447 whole entry): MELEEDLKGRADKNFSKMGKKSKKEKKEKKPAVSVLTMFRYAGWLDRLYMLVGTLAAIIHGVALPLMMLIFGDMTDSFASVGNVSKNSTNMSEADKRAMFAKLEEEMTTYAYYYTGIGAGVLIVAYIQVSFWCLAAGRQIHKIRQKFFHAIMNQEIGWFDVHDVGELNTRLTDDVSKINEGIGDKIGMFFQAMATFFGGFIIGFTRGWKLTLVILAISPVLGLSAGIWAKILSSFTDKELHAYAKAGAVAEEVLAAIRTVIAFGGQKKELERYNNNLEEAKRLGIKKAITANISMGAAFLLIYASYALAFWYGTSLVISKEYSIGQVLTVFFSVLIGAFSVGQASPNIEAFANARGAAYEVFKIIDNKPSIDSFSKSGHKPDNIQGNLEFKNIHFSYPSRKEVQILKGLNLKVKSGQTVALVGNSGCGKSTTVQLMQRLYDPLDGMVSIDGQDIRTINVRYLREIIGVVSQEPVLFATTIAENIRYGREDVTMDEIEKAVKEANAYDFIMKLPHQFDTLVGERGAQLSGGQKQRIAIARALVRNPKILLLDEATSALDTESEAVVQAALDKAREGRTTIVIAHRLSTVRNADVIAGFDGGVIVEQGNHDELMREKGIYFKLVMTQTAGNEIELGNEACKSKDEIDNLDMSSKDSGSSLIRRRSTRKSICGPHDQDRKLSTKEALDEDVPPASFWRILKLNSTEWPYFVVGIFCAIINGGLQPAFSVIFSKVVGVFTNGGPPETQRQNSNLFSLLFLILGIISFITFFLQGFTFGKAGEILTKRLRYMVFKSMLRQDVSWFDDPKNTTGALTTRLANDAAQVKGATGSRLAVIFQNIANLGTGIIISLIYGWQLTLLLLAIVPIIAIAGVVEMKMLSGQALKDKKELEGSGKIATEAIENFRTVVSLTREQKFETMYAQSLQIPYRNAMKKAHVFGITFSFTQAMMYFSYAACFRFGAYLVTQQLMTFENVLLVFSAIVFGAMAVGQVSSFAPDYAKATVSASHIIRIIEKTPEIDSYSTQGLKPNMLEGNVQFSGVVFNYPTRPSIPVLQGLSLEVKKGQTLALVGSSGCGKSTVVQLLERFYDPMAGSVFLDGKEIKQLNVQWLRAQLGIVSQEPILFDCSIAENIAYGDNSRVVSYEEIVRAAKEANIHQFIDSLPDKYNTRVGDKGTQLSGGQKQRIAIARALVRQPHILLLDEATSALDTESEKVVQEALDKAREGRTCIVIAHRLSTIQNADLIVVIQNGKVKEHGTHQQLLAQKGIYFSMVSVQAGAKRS
Description: In vivo microdialysis to assess brain ISF Aβ1-x in the hippocampus of awake, freely moving 3 month old APPsw^+/− mice was performed exactly as described (Cirrito, J. R., et al. 2003. J. Neurosci. 23:8844-8853; DeMattos, R. B., et al. 2004. Neuron. 41:193-202). Aβ1-x represents all Aβ peptides beginning at amino acid 1 of the N-terminus with the C-terminus being variable but predominantly either ending at position 40 or 42. An initial 4-6 hour recovery period elapsed after guide implantation and probe insertion to allow for tissue recovery, followed by collection of microdialysis samples for 5 hours at one-hour intervals at a flow rate of 1.5 μl/min to establish basal level of ISF Aβ. […] Concentrations of ISF Aβ1-x for each mouse were expressed as the percentage of basal level for each mouse (mean of 5 hours prior to treatment).
Acute inhibition of Pgp activity was assessed using APPsw mice (also called Tg2576). […] Using in vivo microdialysis in awake, freely moving mice (Cirrito, J. R., et al. 2003. J. Neurosci. 23:8844-8853; DeMattos, R. B., et al. 2004. Neuron. 41:193-202), a basal concentration of ISF Aβ was determined over 5 hours. Mice were then treated with either vehicle or XR9576 and ISF Aβ levels were assessed for an additional 10 hours (FIG. 2A). […]

Pgp [2] = experiment: [99mTc]Sestamibi transport and biodistribution; format: in vivo, mice; settings: for brain content of the tracer: five minutes after intravenous bolus injection (2 μCi)
Description: The radiopharmaceutical [^99mTc]Sestamibi (Bristol-Myers Squibb Co.) was prepared from a one-step commercial kit formulation by addition of [^99mTc]TcO4^− according to the manufacturer's recommendations (25). […] Data are expressed as percent injected dose per gram tissue [(μCi [^99mTc]Sestamibi in tissue) (μCi injected [^99mTc]Sestamibi)^−1(g tissue)^−1×100] and are reported as mean±SEM (n=3-4) or ±range (n=2).
APPsw^+/− mice were bred to mdr1a/b^−/− animals to produce littermate mice that were positive for the APPsw transgene and either Pgp-null (APPsw^+/−, mdr1a/b^−/−) or Pgp wild type (APPsw^+/−, mdr1a/b^+/+). […] Normally, [^99mTc]Sestamibi is readily transported out of the brain by Pgp.

LRP1 = LRP1 expression in cerebral capillaries by Western blot after acute inhibition of Pgp; format: in vivo, APPsw mice; settings: ten hours after treatment, 80 mg/kg intravenous
Description: Hippocampal tissue from 12 month old APPsw, Pgp-wild type and APPsw, Pgp-null littermates was homogenized in 150 mM NaCl, 50 mM Tris pH 7.4, 0.5% deoxycholic acid, 0.1% SDS, 1% Triton X-100, 2.5 mM EDTA, and protease inhibitors. Western blotting for MRP1, LRP1, and RAGE were performed using 3-8% NuPAGE Tris-Acetate gels (Invitrogen) with thirty micrograms of protein loaded per lane. Cerebral microvessels from 2-3 month old PGP-wildtype (FVB wild type) and Pgp-null mice were isolated as described (Zlokovic, B. V., et al. 1993. J. Biol. Chem. 268:8019-8025.). […] Bands were detected with Lumigen-TMA6 (Amersham Biosciences) and captured digitally using the Kodak ImageStation 440CF. The relative absorbance of each band was detected by densitometry and normalized to protein loaded in each lane. […]
Acute inhibition of Pgp activity was assessed using APPsw mice (also called Tg2576). […] Using in vivo microdialysis in awake, freely moving mice (Cirrito, J. R., et al. 2003. J. Neurosci. 23:8844-8853; DeMattos, R. B., et al. 2004. Neuron. 41:193-202), a basal concentration of ISF Aβ was determined over 5 hours. Mice were then treated with either vehicle or XR9576 and ISF Aβ levels were assessed for an additional 10 hours (FIG. 2A). […] Ten hours after treatment with either vehicle or XR9576, cerebral microvessels were also isolated and assessed for levels of LRP1 by Western blot.

Pgp [3] = experiment: BBB transport: clearance of radiotracers from the brain after intracerebral microinjection; settings: both groups (Pgp-wild type and Pgp-null); 30 minutes; co-injected with [125I]Aβ42
Description: Transport of human [^125I]Aβ40 or [^125I]Aβ42 across the BBB and the associated calculations were performed as described (DeMattos, R. B., et al. 2002. Science. 295:2264-2267; Zlokovic, B. V., et al. 2000. Nat. Med. 6:718-719.). Briefly, a guide cannula was implanted stereotaxically into the right caudate-putamen of anesthetized mice at coordinates 0.9 mm anterior to bregma, 1.9 mm lateral, and 2.9 mm below the dura. Animals were allowed to recover after surgery prior to radiotracer studies. […] Twelve nanomoles of [^14C]inulin and either [^125I]Aβ40 or [^125I]Aβ42 was co-injected in a volume of 0.5 μl over 5 minutes using an ultra micropump (World Precision Instruments). The specific activities of peptide were in the range of 80-120 μCi/μg. The percentage of radioactivity remaining in the brain after microinjection was determined as % recovery in brain=100×(Nb/Ni), where Nb is the radioactivity remaining in the brain at the end of the experiment and Ni is the radioactivity microinjected into brain ISF, i.e., the disintegrations per minute for [^14C]inulin and the counts per minute for tricholoracetic acid-precipitable [^125I]radioactivity (intact Aβ). The percentage of Aβ cleared through the BBB was calculated as [(1−Nb(Aβ)/Ni(Aβ))−(1−Nb(inulin)/Ni(inulin))]×100, using a standard time of 30 min. […]

## COc1cc2c(cc1OC)CN(CCc1ccc(NC(=O)c3cc(OC)c(OC)cc3NC(=O)c3cnc4ccccc4c3)cc1)CC2 [XR9576]
Pgp [1]; eight hours after treatment
  increase of ISF Aβ levels compared to vehicle treated mice: ~30%
Pgp [1]; from eight hours after administration, hippocampus, 3 month old APPsw mice
  ISF exchangeable Aβ1-x (eAβ1-x) levels, % of control-treated (vehicle-treated) mice: 127.7±3.4%
Pgp [2]; intravenous, 80 mg/kg, data not shown
  Pgp function at the BBB as determined with [99mTc]Sestamibi analysis: inhibits Pgp function at the BBB
LRP1
  levels of LRP1 in cerebral vessels: did not change

## [C-]#[N+]CC(C)(C)OC.[C-]#[N+]CC(C)(C)OC.[C-]#[N+]CC(C)(C)OC.[C-]#[N+]CC(C)(C)OC.[C-]#[N+]CC(C)(C)OC.[C-]#[N+]CC(C)(C)OC.[Tc] [[^99mTc]Sestamibi]
Pgp [2]; FVB strain, without APPsw transgene
  increase in brain penetration in Pgp-null mice versus wild type: approximately 3.5 fold
Pgp [2]; Pgp-null mice (FVB)
  brain content of the tracer: 0.85±0.14 % ID/g
Pgp [2]; animals expressing the APPsw+/- transgene
  increase in brain penetration in Pgp-null animals compared with those expressing Pgp: 3.5 fold
Pgp [2]; wild type controls (FVB)
  brain content of the tracer: 0.22±0.02 % injected dose (ID)/gram (g)
Pgp [2]; wild type versus Pgp-null, five minutes post-injection
  blood content of the tracer, difference between the two strains: no difference

## inulin [[^14C]inulin]
Pgp [3]
  brain recovery (retained): Approximately 85%
